In PMC3758111 (Planta medica, 2013):
Like-named read-outs stand apart in the source and are kept apart here.

Experiments:
[1] = rats, oral, as pure compound or in E. purpurea root extract; cited from earlier work
[2] = system: prostaglandin E (2) production in lipopolysaccharide-stimulated RAW264.7 macrophages; conditions: cited from earlier work
[3] = 3 h after oral 60% ethanolic extract of E. angustifolia containing 0.4–2 mg of Bauer alkamide 8 and 10; cited from earlier work
Caco-2 cell monolayers = assay: Transepithelial transfer across Caco-2 cell monolayers; type: in vitro ADME, human; conditions: for Concentration dependency of uptake / Permeation rates at 37 °C compared with 4 °C: pure compounds; for Permeation rates at 37 °C compared with 4 °C: AP-BL
[4] = as above; type: in vitro ADME, human; conditions: human
[5] = system: nitric oxide production in lipopolysaccharide-stimulated RAW264.7 macrophages; conditions: cited from earlier work
[6] = incubation with NADPH and human liver microsomes; cited from earlier work
Caco-2 cells [7] = assay: Cytotoxicity of pure compounds and extracts to Caco-2 cells; type: cell-based, human; conditions: vs control 0.3% v/v DMSO in DMEM, p < 0.05; tested 10–1000 μM
Caco-2 cells [8] = assay: Glucuronidation by Caco-2 cells; conditions: for Compartments in which glucuronide metabolites were found: pure compound, 25 μM applied apically
[9] = molecular target: P-glycoprotein transporter (P-gp) (Homo sapiens, UniProt P08183); assay: P-gp assay: calcein-AM efflux in Caco-2 cells; type: cell-based; conditions: for Concentration that significantly inhibited P-gp activity: single compounds, calcein-AM, Caco-2, p < 0.05
Sequence of P-glycoprotein transporter (P-gp) (P08183 whole entry): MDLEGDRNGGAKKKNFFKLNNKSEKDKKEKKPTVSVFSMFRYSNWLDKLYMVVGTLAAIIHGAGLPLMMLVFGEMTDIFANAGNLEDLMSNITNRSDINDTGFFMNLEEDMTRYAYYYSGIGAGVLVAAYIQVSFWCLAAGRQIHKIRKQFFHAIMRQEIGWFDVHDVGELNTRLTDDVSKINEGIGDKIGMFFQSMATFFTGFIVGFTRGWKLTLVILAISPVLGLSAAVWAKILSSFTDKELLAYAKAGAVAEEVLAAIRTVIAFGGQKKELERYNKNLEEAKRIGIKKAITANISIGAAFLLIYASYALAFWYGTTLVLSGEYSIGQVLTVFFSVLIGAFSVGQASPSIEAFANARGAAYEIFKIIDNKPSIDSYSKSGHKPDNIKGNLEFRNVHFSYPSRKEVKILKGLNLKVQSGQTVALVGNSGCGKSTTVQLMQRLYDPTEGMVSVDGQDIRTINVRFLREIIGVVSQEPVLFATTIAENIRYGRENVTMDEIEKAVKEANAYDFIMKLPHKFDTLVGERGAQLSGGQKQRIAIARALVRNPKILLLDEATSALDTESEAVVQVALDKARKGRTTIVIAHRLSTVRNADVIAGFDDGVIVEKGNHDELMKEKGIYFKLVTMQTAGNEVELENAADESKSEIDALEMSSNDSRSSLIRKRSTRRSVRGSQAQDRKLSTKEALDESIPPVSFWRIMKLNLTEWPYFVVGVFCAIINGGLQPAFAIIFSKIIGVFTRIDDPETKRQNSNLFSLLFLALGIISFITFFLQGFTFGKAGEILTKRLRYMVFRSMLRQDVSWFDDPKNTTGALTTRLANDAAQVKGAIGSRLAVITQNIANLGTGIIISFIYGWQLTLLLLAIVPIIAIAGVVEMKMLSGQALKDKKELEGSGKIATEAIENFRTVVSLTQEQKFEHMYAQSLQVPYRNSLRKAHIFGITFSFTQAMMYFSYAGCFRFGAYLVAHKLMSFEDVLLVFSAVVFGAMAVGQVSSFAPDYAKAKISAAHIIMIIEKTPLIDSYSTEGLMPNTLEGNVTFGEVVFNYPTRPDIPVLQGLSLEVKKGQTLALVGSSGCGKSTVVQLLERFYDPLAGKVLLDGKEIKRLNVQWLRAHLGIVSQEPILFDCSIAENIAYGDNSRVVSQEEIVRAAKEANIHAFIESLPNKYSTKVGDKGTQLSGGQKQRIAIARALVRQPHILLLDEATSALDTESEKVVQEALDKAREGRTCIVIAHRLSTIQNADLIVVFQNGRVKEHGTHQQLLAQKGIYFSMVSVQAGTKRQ

Caco-2 monolayers = conditions: extracted and isolated from E. pallida roots; cited from earlier work
[10] = 100 μM, 72 h, 37°C, RPMI 1640 medium; cited from earlier work
[11] = system: multidrug transporter P-glycoprotein (P-gp); conditions: isolated from E. pallida; human proximal tubular kidney cells; cited from earlier work
[12] = Caco-2, pH 7.4, Papp, After, single compound, 10–100 μM, subsequent to deconjugation with β-glucuronidase, n=9
[13] = Caco-2, pH 7.4, Papp, Before, single compound, 10–100 μM, prior to deconjugation with β-glucuronidase, n=9

| SMILES | Prostaglandin E (2) production ([2]; 50 μM) | Fraction of the ingested dose found in human blood [3] | Concentration dependency of uptake (Caco-2 cell monolayers; 10–100 μM) | Permeation rates at 37 °C compared with 4 °C (Caco-2 cell monolayers) | Papp at 90 min [4, 12] | Papp at 90 min [4, 13] | Nitric oxide production ([5]; 50 μM) | Concentrations significantly cytotoxic to Caco-2 cells (Caco-2 cells [7]) | Compartments in which glucuronide metabolites were found (Caco-2 cells [8]) | Concentration that significantly inhibited P-gp activity [9] | further results |
| --- | --- | --- | --- | --- | --- | --- | --- | --- | --- | --- | --- |
| C/C=C\C=C/CC/C=C/C=C/C(=O)NCC(C)C [Bauer alkamide 8, (2E,4E,8Z,10Z)-N-isobutyldodeca-2,4,8,10-tetraenamide] | significantly decrease | about 5% | increased linearly and exhibited non-saturable transport | No significant differences | 39.8 ± 13.4 ×10⁻⁶ cm/s | 43.8 ± 11.2 ×10⁻⁶ cm/s | significantly decrease | > 350 µM | only in the apical side | 175 µM | Glucuronide or sulfate metabolite in urine [1]: no glucuronide or sulfate metabolite was present; Papp of Bauer alkamide 8 relative to Bauer alkamide 10 (Caco-2 cell monolayers; Table 2): ~ 2.5 ×; Papp of Bauer alkamide 8 relative to Bauer alkamide 11 (Caco-2 cell monolayers; Table 2): ~ 15 ×; Metabolites formed [6]: Monohydroxylated, monoepoxidized, and N-dealkylated metabolites |
| CCC/C=C\CC/C=C/C=C/C(=O)NCC(C)C [Bauer alkamide 10, (2E,4E,8Z)-N-isobutyldodeca-2,4,8-trienamide] |  | ~1% | increased linearly and exhibited non-saturable transport | No significant differences | 18.3 ± 5.9 ×10⁻⁶ cm/s | 17.7 ± 8.8 ×10⁻⁶ cm/s |  |  | in the apical side and cell lysates | 205 µM |  |
| CCCCCCC/C=C/C=C/C(=O)NCC(C)C [Bauer alkamide 11, (2E,4E)-N-isobutyldodeca-2,4-dienamide] | significantly decrease |  | increased linearly and exhibited non-saturable transport | No significant differences |  | 2.8 ± 1.5 ×10⁻⁶ cm/s | significantly decrease | > 460 µM | in the basolateral side and cell lysates | 230 µM |  |
| C/C=C\C#CC/C=C\CCCCCC(C)=O [Bauer ketone 24, pentadeca-(8Z, 13Z)-diene-11-yn-2-one] |  |  |  |  |  |  |  | > 990 µM |  |  | Prostaglandin E (2) production ([2]; 5 μM): significantly decrease; Apparent permeability (Caco-2 monolayers): 10 ± 3 cm/s ×10^−6; Hydroperoxide intermediate formation, of the parent compound [10]: about 25%; Detection of parent compound apically, basolaterally or in cell lysates (Caco-2 cell monolayers; applied as pure compound, 10–100 μM, any time point 15–90 min): not found; Recovered in the basolateral side (Caco-2 cell monolayers; compound as contained in the two Echinacea species extracts): About 5%; Papp at 90 min ([4]; Caco-2, pH 7.4, Papp from E. sanguinea or E. pallida extracts): 12 to 17 ×10⁻⁶ cm/s; Nitric oxide production ([5]; 5 μM): significantly decrease; Metabolism when incubated with Bauer alkamides 8, 10 and 11 (Caco-2 cells [8]; 10–100 μM, data not shown): totally metabolized; Metabolism when administered as a single compound (Caco-2 cells [8]; Caco-2 cells): totally metabolized to more hydrophilic metabolites; Recovery relative to applied amount after β-glucuronidase treatment (Caco-2 cells [8]; contained in E. sanguinea and E. pallida extracts, basolaterally and in cell lysates): significantly increased; Concentrations inhibiting P-gp [11]: 3 to 200 µg/mL; Effect on P-gp activity ([9]; single compound, tested concentrations 1–250 μM): not active |
